Results as given in patent US11800867B2, “Methods of repelling biting arthropods, reducing pathogen spread and treating arthropod infestation” (priority 2016, dated 2023).
“And” between values parts separate entries of the source, which are not always exact repeats. Equal values may be shown once. “Also recorded” adds a separate entry of the source.

Key:
Type in all cases: in vivo
Aedes aegypti mosquitoes = experiment: Choice design repellency test, treated collagen membrane-covered wells filled with warm blood (Example 1); conditions: 1% nootkatone compositions (ethanol and acetone based); probing recorded during 20 min
Protocol: In the following example, the effectiveness of 1% nootkatone compositions in repelling mosquitoes was determined in comparison with DEET in a choice design test.
Compositions of 1% nootkatone were formulated in either ethanol or acetone and coated onto collagen membrane-covered wells filled with warm blood.
Two hundred and fifty female mosquitoes aged 4-8 days were sucrose deprived for 18 hr and then introduced to the collagen membrane-covered wells. Mosquito probing of the treated collagen membranes was recorded every 2 min during a 20 min period.
Five replicates were performed. A 20% DEET composition was used as a positive control and an ethanol only solution served as a negative control.

[1] = tested on: deer ticks (Ixodes scapularis); experiment: Treated filter paper knockdown (KD) and mortality trial (Example 4); conditions: Nootkatone 1% in ethanol on filter paper
Protocol: (§1) A laboratory trial was conducted to assess the efficacy of nootkatone applied to filter paper against aphids (Schizaphis gramium), dust mites (Dermatophagoides sp.), termites (Reticulitermes flavipes), deer ticks (Ixodes scapularis), biting midges (Culicoides sp.), fire ants (Solenopsis invicta), and mosquitoes (Aedes aegypti and Culex), in terms of knockdown (KD) and mortality. One concentration (1% in ethanol) of nootkatone was assessed for most species, but three concentrations (0.25%, 0.5%, and 1% in ethanol) were assessed for mosquitoes. A negative control group, consisting of filter paper treated with ethanol, was also assessed for comparison purposes for each species.
(§2) Test systems were introduced to treated filter paper, allowed to dry, and then introduced into treatment chamber, where treated arthropods were monitored at intervals up to 72 hours. If 100% mortality was obtained prior to 72 hours, the individual study was halted.
(§3) Deer Ticks and Dust mites—5 replicates of 10 ticks or 35 dust mites were tested per treatment. Envelopes made from treated 2.5 inch (6.35 cm) filter paper squares served as the containers. After the ticks or dust mites were placed inside the envelopes, and the openings were sealed using small binder clips.
(§4) Readings were discontinued if treated mortality reaches […], or control mortality exceeds 20%.

[2] = tested on: dust mites (Dermatophagoides sp.); experiment: as above; conditions: Nootkatone 1% in ethanol on filter paper
Protocol: as §1, §2, §3, §4

[3] = tested on: cat fleas (Ctenocephalides felis); experiment: Filter paper choice test of repelling action (Example 6); conditions: for Raw data: number of fleas on Treated half of treated arena, per replicate / Raw data: number of fleas on Untreated half of treated arena, per replicate: 0.5% nootkatone in ethanol, Replicates 1-5
Protocol: (§5) An in vitro laboratory trial was required to assess the repelling action of nootkatone applied to filter paper against cat fleas (Ctenocephalides felis), deer ticks (Ixodes scapularis), bed bugs (Cimex lectularius), and termites (Reticulitermes flavipes) in a choice test design.
(§6) The sponsor provided a sample of nootkatone (98%), which was diluted in ethanol to a 0.5% concentration. The treatment was applied to filter paper at a rate of 1 mL for a 9 cm filter paper disc, and a rate of 1.9 mL for a 15 cm filter paper disc. A negative control group, consisting of untreated filter paper, was also assessed for comparison purposes.
Cat fleas: Treated and untreated filter papers were cut in half and fitted into the bottom of a 15 cm clear plastic cylinder. Treated replicates received one half treated and one half untreated filter paper; negative control replicates received only untreated filter paper.
Cat fleas: Cat fleas were introduced to the untreated side of each arena, and their distribution (on or under each paper) was recorded at +1, +4, and +24 hours post-introduction.
(§7) The number of insects in each location was converted to a percentage, for which the average and standard error were calculated across all five replicates.
(§8) Percent repellency was calculated with the following formula: % repellency=(1−((t/T)/(c/C)))*100 • Where t=number of insects on treated side of treated arena • T=total number of insects in treated arena • c=average number of insects on right side of untreated arenas • C=average total number of insects in untreated arenas

[4] = tested on: bed bugs (Cimex lectularius); experiment: as above
Protocol: as §5, §6
Bed bugs: Petri dishes (9 cm) were modified by cutting a circular hole in the bottom of a clean petri plate. Fine mesh nylon cloth was fastened to the bottom using adhesive, covering the hole. The petri plate was then inverted, with the screened bottom serving as the top. Treated and untreated filter papers were cut in half and fitted into the new bottom of the test containers. Treated replicates received one half treated and one half untreated filter paper; negative control replicates received only untreated filter paper.
Bed bugs: Bed bugs were placed in the center of each test container and covered with the fine-mesh lid. The containers were kept in darkness at ambient laboratory conditions for 24 hours. At the end of the exposure period, the distribution (on or under each filter paper) of bed bugs was recorded.
as §7, §8

[5] = tested on: deer ticks (Ixodes scapularis); experiment: as above
Protocol: as §5, §6
Deer ticks: Treated and untreated filter papers were cut in half and fitted into the bottom of a 9 cm petri dish. Treated replicates received one half treated and one half untreated filter paper; negative control replicates received untreated filter paper only. The petri dish arenas were then placed on their sides, with the control halves positioned at the lower half and the treated half at the upper half.
Deer ticks: Ticks were introduced, one at a time, to the bottom half of the control (untreated) arena, and monitored to see how long it took them to get to the upper “treated” side of the arena. Ticks were allowed up to three minutes to cross into the upper area of each arena. […] Once a tick had crossed into the upper side of the control arena, it was gently picked up with forceps and placed in the bottom half of the treated arena, and the procedure repeated. Ticks were considered “not repelled” if they crossed onto the treated side of the treated arena within three minutes.
The number of repelled ticks for each replicate was added together, and the average and standard error were calculated across all five replicates. The numbers were divided by the total number of ticks per replicate to obtain the percent repellency.

[6] = 0.5% nootkatone in ethanol on filter paper
[7] = 0.5% nootkatone in ethanol, 24 Hours post introduction, Replicates 1-5
[8] = 0.5% nootkatone in ethanol, 10 ticks per replicate, three minutes, Replicates 1-5

Q: Which results are given for C=C(C)[C@@H]1CCC2=CC(=O)C[C@@H](C)[C@]2(C)C1 [Nootkatone, nootkatone]?
A: Average repellency compared with 20% DEET (FIG. 2) (Aedes aegypti mosquitoes): repellency similar to that of 20% DEET; also recorded: comparable repellency; Time required for greater than 90% killing [1]: 72 h; Means Affected ([1]; 24 hours post introduction): 100.0%; Means Dead ([1]; 24 hours post introduction): 36.0%; Means KD ([1]; 24 hours post introduction): 62.0%; Means Affected ([1]; 48 hours post introduction): 100.0%; Means Dead ([1]; 48 hours post introduction): 82.0%; Means KD ([1]; 48 hours post introduction): 16.0%; Means Affected ([1]; 72 hours post introduction): 100.0%; Means Dead ([1]; 72 hours post introduction): 100% and 98%; Means KD ([1]; 72 hours post introduction): 0.0%; Time required for greater than 90% killing [2]: 72 h; Means Affected ([2]; 72 hours post introduction): 100.0%; Means Dead ([2]; 72 hours post introduction): 100%; Means KD ([2]; 72 hours post introduction): 0.0%; Repellency (conclusion in words) [3, 6]: some potential repellency; Raw data: number of fleas on Treated half of treated arena, per replicate ([3]; 1 Hour post introduction): 3 (2×) and 8 and 6 and 4; Raw data: number of fleas on Untreated half of treated arena, per replicate ([3]; 1 Hour post introduction): 2 and 4 (2×) and 7 and 3; Raw data: number of fleas on Treated half of treated arena, per replicate ([3]; 4 Hours post introduction): 2 and 1 and 3 (2×) and 4; Raw data: number of fleas on Untreated half of treated arena, per replicate ([3]; 4 Hours post introduction): 9 and 7 and 6 (2×) and 4; Raw data: number of fleas on Treated half of treated arena, per replicate ([3]; 24 Hours post introduction): 0 and 2 and 4 and 1 (2×); Raw data: number of fleas on Untreated half of treated arena, per replicate ([3]; 24 Hours post introduction): 8 (2×) and 6 (2×) and 9; Calculated percent repellency (average ± SE) ([3]; nootkatone (98%) 0.5% in ethanol on filter paper, half treated, half untreated arena): 61.9 ± 15.0%; Repellency (conclusion in words) [4, 6]: highly repellent; Raw data: number of bed bugs on Treated half of treated arena, per replicate [4, 7]: 0 (4×) and 1; Raw data: number of bed bugs on Untreated half of treated arena, per replicate [4, 7]: 10 (4×) and 9; Calculated percent repellency (average ± SE) ([4]; nootkatone (98%) 0.5% in ethanol on filter paper, half treated, half untreated arena, 24 hours): 93.9 ± 6.1%; Repellency (conclusion in words) [5, 6]: highly repellent; Raw data: number of ticks Not repelled, per replicate [5, 8]: 0 (3×) and 1 (2×); Raw data: number of ticks Repelled, per replicate [5, 8]: 9 (2×) and 10 (3×); Calculated percent repellency (average ± SE) ([5]; nootkatone (98%) 0.5% in ethanol on filter paper, treated upper half, up to three minutes to cross): 96.0 ± 2.4%
